This note sets out measurements from patent US20220323406A1, “METHODS AND COMPOSITIONS FOR DIFFERENTIATING STEM CELLS” (Massachusetts Institute of Technology, priority 2019, published 2022).

The subject of test [1] is ENR+CD organoids (ISC to Paneth cell differentiation). Nature of the test: Primary screen: basal (non-stimulated) lysozyme secretion LYZ.NS, 2.5-D 384-well ENR+CD organoid differentiation. The format is cell-based, mouse. The text has this:
(§1) High-throughput screening.

The test system is the same in test [2]. Nature of the test: Primary screen: CCh-stimulated lysozyme secretion LYZ.S, 2.5-D 384-well ENR+CD organoid differentiation. To be noted: primary screen. The format is cell-based, mouse.
Text: as §1

Test [3] relates to ENR+CD organoids. The test can be described thus: Primary screen: ATP (CellTiter-Glo 3D, CTG) cell number/viability, 2.5-D 384-well ENR+CD organoids.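 Further: compounds given at plating and again on day 3 over a 6-day differentiation from ENR+CV stem-cell-enriched precursors, ATP measured on day 6, plate median as control.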 In general terms: In ATP-based viability assays light output follows the ATP content of the culture.
Where [4] appears, read: primary screen, dose 0.08 uM, standard z score.
[5] abbreviates: primary screen, dose 0.40 uM, standard z score.
Setting [6] is: primary screen, dose 2.00 uM, standard z score.
The mark [7] stands for this setting: primary screen, dose 10.00 uM, standard z score.
The mark [8] stands for this setting: primary screen; dose 0.08 uM; FC vs plate median.
The mark [9] stands for this setting: primary screen; dose 0.40 uM; FC vs plate median.
The mark [10] stands for this setting: primary screen; dose 2.00 uM; FC vs plate median.
Where [11] appears, read: primary screen; dose 10.00 uM; FC vs plate median.
[12] abbreviates: dose 0.08 uM, FC vs plate median.
The mark [13] stands for this setting: dose 0.40 uM, FC vs plate median.
Setting [14] is: dose 2.00 uM, FC vs plate median.
Where [15] appears, read: dose 10.00 uM, FC vs plate median.
The mark [16] stands for this setting: primary screen, standard z score, dose 0.08 uM.
[17] abbreviates: primary screen, standard z score, dose 0.40 uM.
[18] abbreviates: primary screen, standard z score, dose 2.00 uM.
Setting [19] is: primary screen, standard z score, dose 10.00 uM.

Structures can show the parent of a compound that is named as a salt.

Regarding `NCC(=O)Nc1ccc(-n2nc(C(F)(F)F)cc2-c2ccc3c(ccc4ccccc43)c2)cc1` [OSU-03012 (AR-12)], the Z.LYZ.NS is listed as 0.755 in test [1] (setting [4]), 0.285 in test [1] (setting [5]), 0.460 in test [1] (setting [6]) and −0.423 in test [1] (setting [7]). The Dose.FC.LYZ.NS in test [1] (setting [8]) is 0.087 log2 fold change; in test [1] (setting [9]), 0.033 log2 fold change; in test [1] (setting [10]), 0.053 log2 fold change; in test [1] (setting [11]), −0.049 log2 fold change. Besides, the Dose.FC.LYZ.S in test [2] (setting [12]) is on record as 0.126 log2 fold change; in test [2] (setting [13]) it was 0.113 log2 fold change; in test [2] (setting [14]), 0.060 log2 fold change; in test [2] (setting [15]), −0.128 log2 fold change. In addition, the Z.CTG came out at 0.491 in test [3] (setting [4]), 0.272 in test [3] (setting [5]), 0.556 in test [3] (setting [6]) and 0.185 in test [3] (setting [7]). The Dose.FC.CTG amounted to 0.205 log2 fold change in test [3] (setting [8]), 0.114 log2 fold change in test [3] (setting [9]), 0.233 log2 fold change in test [3] (setting [10]) and 0.078 log2 fold change in test [3] (setting [11]).

With `CCOC(=O)[C@H](CCc1ccccc1)N[C@@H](C)C(=O)N1C(=O)N(C)C[C@H]1C(=O)O` [Imidapril HCl], the “Dose.FC.LYZ.NS (log2 fold change)” value was −0.006 in test [1] (primary screen, dose 0.08 uM); 0.000 in test [1] (primary screen, dose 0.40 uM); 0.014 in test [1] (primary screen, dose 2.00 uM); −0.081 in test [1] (primary screen, dose 10.00 uM). In addition, the “Z.LYZ.NS (standard z score)” value in test [1] (primary screen, dose 0.08 uM) is on record as −0.049; in test [1] (primary screen, dose 0.40 uM) it was 0.004; in test [1] (primary screen, dose 2.00 uM), 0.121; in test [1] (primary screen, dose 10.00 uM), −0.706. For the same compound, the “Dose.FC.LYZ.S (log2 fold change)” value in test [2] (dose 0.08 uM) is −0.042; in test [2] (dose 0.40 uM) it was 0.109; in test [2] (dose 2.00 uM) it was −0.035; in test [2] (dose 10.00 uM), −0.075. Moreover, the “Dose.FC.CTG (log2 fold change)” value was −0.333 in test [3] (primary screen, dose 0.08 uM); −0.148 in test [3] (primary screen, dose 0.40 uM); −0.236 in test [3] (primary screen, dose 2.00 uM); −0.227 in test [3] (primary screen, dose 10.00 uM).

Turning to `CCOC(=O)CCNc1cc(N2CCc3ccccc3CC2)nc(-c2ccccn2)n1.Cl` [GSK J4 HCl], the “Dose.FC.LYZ.NS (log2 fold change)” value in test [1] (primary screen, dose 0.08 uM) is recorded as 0.058; in test [1] (primary screen, dose 0.40 uM), 0.050; in test [1] (primary screen, dose 2.00 uM), 0.018; in test [1] (primary screen, dose 10.00 uM), −0.001. In addition, the “Z.LYZ.NS (standard z score)” value in test [1] (primary screen, dose 0.08 uM) is reported as 0.508; in test [1] (primary screen, dose 0.40 uM), 0.433; in test [1] (primary screen, dose 2.00 uM), 0.153; in test [1] (primary screen, dose 10.00 uM), −0.006. Further, the “Dose.FC.LYZ.S (log2 fold change)” value in test [2] (dose 0.08 uM) is listed as 0.086; in test [2] (dose 0.40 uM), 0.109; in test [2] (dose 2.00 uM), 0.041; in test [2] (dose 10.00 uM), −0.002. Further, the “Dose.FC.CTG (log2 fold change)” value in test [3] (primary screen, dose 0.08 uM) is on record as 0.124; in test [3] (primary screen, dose 0.40 uM), 0.099; in test [3] (primary screen, dose 2.00 uM) it was 0.002; in test [3] (primary screen, dose 10.00 uM), 0.233. Moreover, the “Z.CTG (standard z score)” value worked out at 0.297 in test [3] (primary screen, dose 0.08 uM); 0.237 in test [3] (primary screen, dose 0.40 uM); 0.006 in test [3] (primary screen, dose 2.00 uM); 0.558 in test [3] (primary screen, dose 10.00 uM).

With `O=C(NCCN1CCOCC1)c1ccc(Cl)cc1` [Moclobemide (Ro 111163)], the Z.LYZ.NS is given as 0.654 in test [1] (setting [4]), 1.055 in test [1] (setting [5]), 0.011 in test [1] (setting [6]) and −0.243 in test [1] (setting [7]). In addition, the Dose.FC.LYZ.NS in test [1] (setting [8]) is 0.075 log2 fold change; in test [1] (setting [9]) it was 0.121 log2 fold change; in test [1] (setting [10]), 0.001 log2 fold change; in test [1] (setting [11]), −0.028 log2 fold change. In addition, the Dose.FC.LYZ.S in test [2] (setting [12]) came out at 0.147 log2 fold change; in test [2] (setting [13]) it was 0.094 log2 fold change; in test [2] (setting [14]) it was 0.012 log2 fold change; in test [2] (setting [15]) it was 0.019 log2 fold change. Also, the Z.CTG in test [3] (setting [4]) was found to be 0.348; in test [3] (setting [5]) it was 0.252; in test [3] (setting [6]), 0.276; in test [3] (setting [7]) it was 0.100. Moreover, the Dose.FC.CTG is reported as 0.146 log2 fold change in test [3] (setting [8]), 0.106 log2 fold change in test [3] (setting [9]), 0.116 log2 fold change in test [3] (setting [10]) and 0.042 log2 fold change in test [3] (setting [11]).

On to `COc1ccc(COc2ccc(Cc3cnc(N)nc3N)cc2OC)cc1` [GW2580], for which the “Dose.FC.LYZ.NS (log2 fold change)” value in test [1] (primary screen, dose 0.08 uM) is 0.006; in test [1] (primary screen, dose 0.40 uM) it was 0.014; in test [1] (primary screen, dose 2.00 uM), −0.060; in test [1] (primary screen, dose 10.00 uM) it was −0.018. Further, the “Z.LYZ.NS (standard z score)” value was 0.056 in test [1] (primary screen, dose 0.08 uM); 0.118 in test [1] (primary screen, dose 0.40 uM); −0.525 in test [1] (primary screen, dose 2.00 uM); −0.158 in test [1] (primary screen, dose 10.00 uM). Also, the “Dose.FC.LYZ.S (log2 fold change)” value in test [2] (dose 0.08 uM) is listed as −0.013; in test [2] (dose 0.40 uM), 0.020; in test [2] (dose 2.00 uM), −0.060; in test [2] (dose 10.00 uM), −0.026. The “Dose.FC.CTG (log2 fold change)” value was −0.042 in test [3] (primary screen, dose 0.08 uM); −0.284 in test [3] (primary screen, dose 0.40 uM); 0.029 in test [3] (primary screen, dose 2.00 uM); −0.038 in test [3] (primary screen, dose 10.00 uM). Besides, the “Z.CTG (standard z score)” value was −0.101 in test [3] (primary screen, dose 0.08 uM); −0.678 in test [3] (primary screen, dose 0.40 uM); 0.068 in test [3] (primary screen, dose 2.00 uM); −0.091 in test [3] (primary screen, dose 10.00 uM).

Take `Cc1ccc(-c2cc(C(F)(F)F)nn2-c2ccc(S(N)(=O)=O)cc2)cc1` [Celecoxib]: the Dose.FC.LYZ.NS in test [1] (primary screen, dose 0.08 uM) was −0.041 log2 fold change; in test [1] (primary screen, dose 0.40 uM), −0.053 log2 fold change; in test [1] (primary screen, dose 2.00 uM), −0.084 log2 fold change; in test [1] (primary screen, dose 10.00 uM), −0.099 log2 fold change. For the same compound, the Z.LYZ.NS in test [1] (setting [16]) is −0.359; in test [1] (setting [17]) it was −0.463; in test [1] (setting [18]), −0.734; in test [1] (setting [19]) it was −0.865. Besides, the Dose.FC.LYZ.S in test [2] (dose 0.08 uM) was −0.067 log2 fold change; in test [2] (dose 0.40 uM), −0.068 log2 fold change; in test [2] (dose 2.00 uM) it was −0.097 log2 fold change; in test [2] (dose 10.00 uM) it was −0.133 log2 fold change. The Dose.FC.CTG is recorded as −0.034 log2 fold change in test [3] (primary screen, dose 0.08 uM); −0.299 log2 fold change in test [3] (primary screen, dose 0.40 uM); −0.118 log2 fold change in test [3] (primary screen, dose 2.00 uM); −0.128 log2 fold change in test [3] (primary screen, dose 10.00 uM).

With `CC1C(=O)OC2C(O)C34C5CC(C(C)(C)C)C36C(OC(=O)C6O)OC4(C(=O)O5)C12O` (stereo not shown) [Ginkgolide B], the Dose.FC.LYZ.NS is on record as 0.041 log2 fold change in test [1] (primary screen, dose 0.08 uM); 0.109 log2 fold change in test [1] (primary screen, dose 0.40 uM); 0.061 log2 fold change in test [1] (primary screen, dose 2.00 uM); −0.037 log2 fold change in test [1] (primary screen, dose 10.00 uM). In addition, the Z.LYZ.NS is 0.353 in test [1] (setting [16]), 0.950 in test [1] (setting [17]), 0.528 in test [1] (setting [18]) and −0.326 in test [1] (setting [19]). Further, the Dose.FC.LYZ.S in test [2] (dose 0.08 uM) is 0.034 log2 fold change; in test [2] (dose 0.40 uM), 0.047 log2 fold change; in test [2] (dose 2.00 uM) it was 0.033 log2 fold change; in test [2] (dose 10.00 uM), −0.035 log2 fold change. For the same compound, the Dose.FC.CTG is given as −0.076 log2 fold change in test [3] (primary screen, dose 0.08 uM); 0.034 log2 fold change in test [3] (primary screen, dose 0.40 uM); −0.154 log2 fold change in test [3] (primary screen, dose 2.00 uM); 0.177 log2 fold change in test [3] (primary screen, dose 10.00 uM). Moreover, the Z.CTG is reported as −0.182 in test [3] (setting [16]), 0.081 in test [3] (setting [17]), −0.369 in test [3] (setting [18]) and 0.422 in test [3] (setting [19]).

`CCOc1ccccc1-n1c(C(C)N2CCN(C(=O)COc3ccc(Cl)cc3)CC2)nc2ccccc2c1=O` (stereo not shown) [Erastin]: the Dose.FC.LYZ.NS in test [1] (primary screen, dose 0.08 uM) was 0.157 log2 fold change; in test [1] (primary screen, dose 0.40 uM) it was 0.158 log2 fold change; in test [1] (primary screen, dose 2.00 uM), 0.157 log2 fold change; in test [1] (primary screen, dose 10.00 uM), −0.015 log2 fold change. Also, the Z.LYZ.NS was 1.368 in test [1] (setting [16]), 1.375 in test [1] (setting [17]), 1.367 in test [1] (setting [18]) and −0.133 in test [1] (setting [19]). The Dose.FC.LYZ.S in test [2] (dose 0.08 uM) turned out to be 0.170 log2 fold change; in test [2] (dose 0.40 uM) it was 0.160 log2 fold change; in test [2] (dose 2.00 uM), 0.106 log2 fold change; in test [2] (dose 10.00 uM), 0.039 log2 fold change. For the same compound, the Dose.FC.CTG in test [3] (primary screen, dose 0.08 uM) was 0.225 log2 fold change; in test [3] (primary screen, dose 0.40 uM) it was 0.285 log2 fold change; in test [3] (primary screen, dose 2.00 uM), 0.380 log2 fold change; in test [3] (primary screen, dose 10.00 uM), 0.298 log2 fold change.
